This note sets out measurements from ChEMBL document CHEMBL4616652, “Bioactive Polyhydroxanthones from Penicillium purpurogenum” (J Nat Prod, 2020).

The structures appear in SMILES notation. ≈ marks a conversion by molar mass, not a printed value. Structures can show the parent of a compound that is named as a salt. Where only a bound is given, the exact number is not on record here.

One assay relates to A549. Kind of assay: Cytotoxicity against human A549 cells after 72 hrs by MTT assay. In kind it is functional, cell-based. Particulars: A549, 72 h. Background: Tetrazolium assays rely on reduction of a dye to a coloured formazan, in cell work by metabolically active cells.
Another assay has as its system HeLa. Kind of assay: Cytotoxicity against human HeLa cells after 72 hrs by MTT assay. It is filed as functional, cell-based.
The next assay concerns HepG2. The assay is described as follows: Cytotoxicity against human HepG2 cells after 72 hrs by MTT assay. In kind it is functional, cell-based. Particulars: HepG2, 72 h.
A further assay concerns Vero. Kind of assay: Cytotoxicity against African green monkey Vero cells incubated for 72 hrs by MTT assay. In kind it is cell-based. The following applies: Chlorocebus sabaeus.
Assay [1] deals with Staphylococcus aureus. The assay is described as follows: Antimicrobial activity against Staphylococcus aureus incubated for 7 hrs by alamar Blue assay. In kind it is functional. A general note: Resazurin is reduced to fluorescent resorufin, in cell work by metabolically active cells.
The test system of a further assay is Shigella dysenteriae. The assay is described as follows: Antimicrobial activity against Shigella dysenteriae incubated for 7 hrs by alamar Blue assay. In kind it is functional.
The test system of assay [2] is Staphylococcus aureus. The assay is described as follows: Antimicrobial activity against methicillin-resistant Staphylococcus aureus incubated for 7 hrs by alamar Blue assay. It is filed as functional.

One may read the IC50 as the concentration that inhibits the measured activity by half. For orientation: MIC means the lowest concentration found to suppress growth.

As for `C[C@@H]1C[C@@H](O)[C@@]2(O)C(=O)c3c(O)cccc3O[C@]2(C)[C@H]1O`, the IC50 in the assay on A549, in the assay on HeLa, with HepG2 and in the assay with Vero was over 50 µM in each case. The MIC in the assay on Staphylococcus aureus [1] and in the assay with Shigella dysenteriae was over 100 µg/mL throughout.

As for `CN[C@H](CC(C)C)C(=O)N[C@H]1C(=O)N[C@@H](CC(N)=O)C(=O)N[C@H]2C(=O)N[C@H]3C(=O)N[C@H](C(=O)N[C@H](C(=O)O)c4cc(O)cc(O)c4-c4cc3ccc4O)[C@H](O)c3ccc(c(Cl)c3)Oc3cc2cc(c3O[C@@H]2O[C@H](CO)[C@@H](O)[C@H](O)[C@H]2O[C@H]2C[C@](C)(N)[C@H](O)[C@H](C)O2)Oc2ccc(cc2Cl)[C@H]1O` [VANCOMYCIN], in the assay with Staphylococcus aureus [2], the MIC came to 0.8 µg/mL (≈ 0.552 µM).

For `NC[C@H]1O[C@H](O[C@H]2[C@H](O)[C@@H](O[C@H]3O[C@H](CO)[C@@H](O)[C@H](N)[C@H]3O)[C@H](N)C[C@@H]2N)[C@H](O)[C@@H](O)[C@@H]1O` [KANAMYCIN], the results for the minimum inhibitory concentration (MIC) in the assay on Staphylococcus aureus [2], with Staphylococcus aureus [1] and against Shigella dysenteriae were over 100 µg/mL, 0.8 µg/mL (≈ 1.65 µM) and 0.2 µg/mL (≈ 0.413 µM), respectively.

In the case of `C[C@@]12O[C@]3(C(=O)c4c(O)cccc4O[C@@]3(C)[C@H]1O)[C@@H](O)[C@H]2O`, the IC50 with A549, with HeLa, in the assay on HepG2 and in the assay with Vero was over 50 µM throughout. In addition, the MIC against Staphylococcus aureus [1] and in the assay with Shigella dysenteriae was over 100 µg/mL in each case.

For `CC1=C[C@H](O)[C@]2(O)C(=O)c3c(O)cccc3O[C@@]2(C)[C@H]1OC(=O)CCC(=O)O`, the IC50 in the assay with A549, in the assay on HeLa, in the assay on HepG2 and in the assay on Vero was over 50 µM throughout. In addition, the MIC with Staphylococcus aureus [1] and with Shigella dysenteriae was over 100 µg/mL each time.

Turning to `COC(=O)CCC(=O)O[C@H]1[C@]2(C)O[C@@H]2C(O)=C2C(=O)c3c(ccc(-c4ccc5c(c4O)C(=O)C4=C(O)[C@H]6O[C@@]6(C)[C@H](OC(=O)CCC(=O)O)[C@]4(C)O5)c3O)O[C@]21C`, the IC50 is 32 µM in the assay on A549, 7.6 µM in the assay with HeLa, 4.8 µM in the assay on HepG2 and over 50 µM with Vero. The minimal inhibitory concentration (MIC) against Staphylococcus aureus [2] came to 12.5 µg/mL (≈ 15.8 µM); in the assay on Staphylococcus aureus [1], 3.1 µg/mL (≈ 3.91 µM); against Shigella dysenteriae, 6.3 µg/mL (≈ 7.95 µM).

Turning to `CC1=C[C@H](O)[C@]2(O)C(=O)c3c(O)cccc3O[C@@]2(C)[C@H]1O`, the IC50 in the assay on A549, in the assay on HeLa, in the assay on HepG2 and in the assay with Vero was over 50 µM in each case. Besides, the MIC in the assay on Staphylococcus aureus [1] and in the assay on Shigella dysenteriae was over 100 µg/mL in each case.

For the molecule `C[C@@]12O[C@@H]1[C@H](O)[C@]1(O)C(=O)c3c(O)cccc3O[C@@]1(C)[C@H]2O`, the IC50 with A549, with HeLa, in the assay with HepG2 and in the assay with Vero was over 50 µM each time. The MIC against Staphylococcus aureus [1] and against Shigella dysenteriae was over 100 µg/mL in each case.

Regarding `C[C@@]12O[C@@H]1C(O)=C1C(=O)c3c(ccc(-c4ccc5c(c4O)C(=O)C4=C(O)[C@H]6O[C@@]6(C)[C@H](OC(=O)CCC(=O)O)[C@]4(C)O5)c3O)O[C@@]1(C)[C@H]2OC(=O)CCC(=O)O`, the IC50 with A549, in the assay with HeLa, in the assay on HepG2 and with Vero was over 50 µM in each case. Besides, the minimum inhibitory concentration (MIC) was found to be 100 µg/mL (≈ 128 µM) against Staphylococcus aureus [2], 12.5 µg/mL (≈ 16.1 µM) against Staphylococcus aureus [1] and 100 µg/mL (≈ 128 µM) against Shigella dysenteriae.

Turning to `COC(=O)CCC(=O)O[C@H]1[C@]2(C)O[C@@H]2C(O)=C2C(=O)c3c(ccc(-c4ccc5c(c4O)C(=O)C4=C(O)[C@H]6O[C@@]6(C)[C@H](OC(=O)CCC(=O)OC)[C@]4(C)O5)c3O)O[C@]21C`, the IC50 was 0.6 µM with A549, 0.3 µM in the assay on HeLa, 0.5 µM with HepG2 and over 50 µM in the assay with Vero. For the same molecule, the MIC in the assay on Staphylococcus aureus [2] was determined as 0.4 µg/mL (≈ 0.496 µM); against Staphylococcus aureus [1], 0.4 µg/mL (≈ 0.496 µM); against Shigella dysenteriae, 6.3 µg/mL (≈ 7.81 µM).

In the case of `COc1cccc2c1C(=O)c1c(O)c3c(c(O)c1C2=O)C[C@@](O)(C(=O)CO)C[C@@H]3O[C@H]1C[C@H](N)[C@H](O)[C@H](C)O1` [DOXORUBICIN HYDROCHLORIDE], the values for the IC50 in the assay on A549 and in the assay on HeLa were 0.7 µM and 0.5 µM, respectively.
